{"source": "patent US20020084230A1", "about": "“Methods for screening drugs to predict tardive dyskinesia” (priority 1997, published 2002)", "key": {"[1]": {"experiment": "Hydrogen peroxide production assay (TCEP/DTNB, 96-well) in presence of Cu(II)", "details": "for effect of chelating agent on hydrogen peroxide production by Vitamin C and antipsychotics: FIG. 7", "procedure": "To determine whether antipsychotics themselves could be the source of peroxidation in TD, we measured hydrogen peroxide formation in vitro using a novel 96-well assay developed specifically for that purpose. The production of hydrogen peroxide is assayed by a modification of a published method (Han, J. C. and Han, G. Y., Anal. Biochem. 220:5-10 (1994); Han, J., et al., Anal. Biochem. 234:107-109 (1996)). […] Antipsychotics (10 μM) were assayed for hydrogen peroxide formation in PBS (pH 7.4) in the presence of 10 μM Cu(II).\nTen μM of antipsychotics and 10 μM of Cu(II) were co-incubated with 100 μM of a H2O2-trapping reagent, Tris(2-Carboxyethyl)-Phosphine Hydrochloride (TCEP), in PBS (pH 7.4) at 37° C. for 1 hour."}, "rats": {"test_system": "rats", "experiment": "Rodent model of vacuous chewing (TD model)", "format": "in vivo, rat", "details": "24 weeks treatment, 12 weeks withdrawal, FIG. 12", "procedure": "There are two major animal models of TD. The first is a primate model of antipsychotic-induced dyskinesia. Ten to thirty percents of Cebus or Maccaca monkeys will develop clinical dyskinesia after long-term antipsychotic treatment. The second is a rodent model of vacuous chewing. In the rodent model, when the animals are treated with antipsychotics, they develop vacuous chewing, whic phenomenological similarities to the orobuccofacial movement of TD. Only 30-60% of rats will develop vacuous chewing. The chewing movement is enhanced after the withdrawal of antipsychotic treatment. […] (FIG. 12.)"}, "SOD and catalase": {"test_system": "SOD and catalase", "details": "rats, chronic treatment; cited from earlier work"}, "tardive dyskinesia": {"test_system": "tardive dyskinesia", "details": "patients with TD; cited from earlier work"}}, "data": [{"molecule": "Cc1cc(-c2ccc(S(=O)(=O)O)cc2)c2ccc3c(-c4ccc(S(=O)(=O)O)cc4)cc(C)nc3c2n1", "note": "[bathocuproine disulfonate (BC), bathocuproine disulfonate]", "values": [{"measurement": "effect of chelating agent on hydrogen peroxide production by Vitamin C and antipsychotics", "setting": "[1]", "value": "significantly attenuate the production of hydrogen peroxide"}]}, {"molecule": "CN1CCN(C2=Nc3cc(Cl)ccc3Nc3ccccc32)CC1", "note": "[clozapine]", "values": [{"measurement": "induction of vacuous chewing", "setting": "rats", "value": "only induce vacuous chewing in a small portion of the animals"}]}, {"molecule": "OCCN1CCN(CCCN2c3ccccc3Sc3ccc(C(F)(F)F)cc32)CC1", "note": "[fluphenazine]", "values": [{"measurement": "SOD and catalase activities in the nervous system", "setting": "SOD and catalase", "value": "cause a decrease in SOD and catalase activities"}, {"measurement": "dependence of hydrogen peroxide generation on copper concentration", "setting": "[1]; FIG. 6", "value": "dependent on the concentration of copper"}, {"measurement": "dependence of hydrogen peroxide generation on drug concentration", "setting": "[1]; dose response, FIG. 5", "value": "concentration dependent"}]}, {"molecule": "NCCNCCNCCN", "note": "[triethylenetetramine (TETA), triethylenetetramine]", "values": [{"measurement": "effect of chelating agent on hydrogen peroxide production by Vitamin C and antipsychotics", "setting": "[1]", "value": "significantly attenuate the production of hydrogen peroxide"}]}, {"molecule": "Vitamin E", "values": [{"measurement": "effect on symptoms of TD", "setting": "tardive dyskinesia", "value": "reverses the symptoms of TD"}]}]}
